The results in this text go back to ChEMBL document CHEMBL3886458 (2016).

For test [1], the target named is T1, Poly [ADP-ribose] polymerase tankyrase-2 (Homo sapiens, UniProt Q9H2K2).
T1 sequence (Q9H2K2 whole entry): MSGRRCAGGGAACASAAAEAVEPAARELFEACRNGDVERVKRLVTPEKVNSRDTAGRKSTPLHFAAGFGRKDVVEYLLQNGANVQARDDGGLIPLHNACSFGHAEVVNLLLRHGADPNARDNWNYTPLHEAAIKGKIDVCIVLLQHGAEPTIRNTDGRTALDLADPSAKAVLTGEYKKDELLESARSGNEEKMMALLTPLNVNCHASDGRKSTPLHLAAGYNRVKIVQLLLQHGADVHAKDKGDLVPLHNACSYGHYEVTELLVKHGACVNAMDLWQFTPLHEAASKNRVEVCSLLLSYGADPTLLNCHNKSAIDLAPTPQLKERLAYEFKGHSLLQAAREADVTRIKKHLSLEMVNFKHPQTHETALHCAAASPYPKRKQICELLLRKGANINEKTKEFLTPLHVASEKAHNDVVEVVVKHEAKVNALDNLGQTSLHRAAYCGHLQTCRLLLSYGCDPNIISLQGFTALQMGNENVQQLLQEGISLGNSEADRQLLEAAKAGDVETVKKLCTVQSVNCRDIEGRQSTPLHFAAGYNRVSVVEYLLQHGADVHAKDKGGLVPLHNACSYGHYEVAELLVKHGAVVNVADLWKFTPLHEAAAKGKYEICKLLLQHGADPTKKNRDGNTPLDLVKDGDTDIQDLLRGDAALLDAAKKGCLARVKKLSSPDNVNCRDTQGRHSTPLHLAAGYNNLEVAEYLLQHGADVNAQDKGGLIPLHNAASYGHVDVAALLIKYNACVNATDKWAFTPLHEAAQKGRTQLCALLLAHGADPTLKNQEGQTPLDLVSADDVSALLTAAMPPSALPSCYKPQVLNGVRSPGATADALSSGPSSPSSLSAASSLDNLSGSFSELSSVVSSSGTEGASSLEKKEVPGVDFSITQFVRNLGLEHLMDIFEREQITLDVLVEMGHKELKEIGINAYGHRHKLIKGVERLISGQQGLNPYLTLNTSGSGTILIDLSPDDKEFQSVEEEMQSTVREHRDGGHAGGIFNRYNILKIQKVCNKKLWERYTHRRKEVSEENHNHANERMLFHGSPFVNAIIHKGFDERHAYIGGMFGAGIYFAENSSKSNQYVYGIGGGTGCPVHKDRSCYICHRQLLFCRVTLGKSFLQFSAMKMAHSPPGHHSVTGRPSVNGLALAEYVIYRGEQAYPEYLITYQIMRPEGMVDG
In words: Biochemical Assay: The autoparsylation activity of the TNKS 1/2 or PARP1/2 enzymes was measured by the liquid chromatography-mass spectrometry (LC/MS) detection of nicotinamide as readout. Compound activity in inhibiting the TNKS and PARP autoparsylation was evaluated by IC50 measurements. In the compound screening assays, the reaction is composed of 5 uL of compound in […]-point serial ….

Test [2] deals with T2, Poly [ADP-ribose] polymerase tankyrase-1 (Homo sapiens, UniProt O95271).
T2 sequence (O95271 whole entry): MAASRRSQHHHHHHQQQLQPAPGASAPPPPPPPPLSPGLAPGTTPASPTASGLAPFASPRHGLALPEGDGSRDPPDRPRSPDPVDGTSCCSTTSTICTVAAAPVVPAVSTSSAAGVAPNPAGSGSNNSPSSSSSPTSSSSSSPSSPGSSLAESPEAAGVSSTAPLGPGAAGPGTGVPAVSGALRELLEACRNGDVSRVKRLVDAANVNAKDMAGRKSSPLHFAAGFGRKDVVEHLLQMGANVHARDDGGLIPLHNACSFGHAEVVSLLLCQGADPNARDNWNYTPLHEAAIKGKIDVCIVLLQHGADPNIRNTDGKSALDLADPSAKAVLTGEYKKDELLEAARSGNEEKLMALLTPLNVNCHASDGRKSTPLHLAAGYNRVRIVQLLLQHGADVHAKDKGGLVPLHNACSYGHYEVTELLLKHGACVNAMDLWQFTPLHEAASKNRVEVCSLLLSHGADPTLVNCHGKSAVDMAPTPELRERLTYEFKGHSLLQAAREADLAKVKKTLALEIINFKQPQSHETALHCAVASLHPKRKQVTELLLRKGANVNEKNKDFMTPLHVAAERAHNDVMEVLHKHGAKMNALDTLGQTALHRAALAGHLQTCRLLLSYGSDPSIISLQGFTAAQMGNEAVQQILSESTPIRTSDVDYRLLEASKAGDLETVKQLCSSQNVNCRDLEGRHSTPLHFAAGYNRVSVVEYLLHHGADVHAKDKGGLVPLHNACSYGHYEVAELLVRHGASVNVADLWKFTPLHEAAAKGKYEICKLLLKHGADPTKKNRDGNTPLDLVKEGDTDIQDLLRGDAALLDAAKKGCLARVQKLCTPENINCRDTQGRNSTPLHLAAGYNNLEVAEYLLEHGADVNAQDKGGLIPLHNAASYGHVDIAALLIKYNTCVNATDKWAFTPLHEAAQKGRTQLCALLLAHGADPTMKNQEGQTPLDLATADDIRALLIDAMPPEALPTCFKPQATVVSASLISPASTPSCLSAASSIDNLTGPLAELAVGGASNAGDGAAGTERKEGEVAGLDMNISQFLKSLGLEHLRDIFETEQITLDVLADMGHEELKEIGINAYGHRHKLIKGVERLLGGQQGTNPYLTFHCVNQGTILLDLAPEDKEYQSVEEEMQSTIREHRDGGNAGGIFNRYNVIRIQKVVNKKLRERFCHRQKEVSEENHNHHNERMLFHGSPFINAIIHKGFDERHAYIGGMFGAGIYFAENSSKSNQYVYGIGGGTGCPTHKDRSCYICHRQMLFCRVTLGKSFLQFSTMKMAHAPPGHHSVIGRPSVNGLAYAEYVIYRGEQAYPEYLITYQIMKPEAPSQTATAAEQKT
The test is described as above.

In the case of `O=c1[nH]c(CN(Cc2cccs2)S(=O)(=O)CCc2ccccc2)nc2c1COCC2`, the results for the IC50 in test [1] and in test [2] were 910 nM and 5120 nM, respectively.
Consider `O=c1[nH]c(CN(Cc2cccs2)S(=O)(=O)Cc2ccccc2)nc2c1COCC2`, for which the IC50 in test [1] stood at 177 nM; in test [2], 1160 nM.
For `O=C(CCc1c[nH]c2ccccc12)N(Cc1nc2c(c(=O)[nH]1)COCC2)Cc1cccs1`, the IC50 in test [1] is 1580 nM; in test [2] it was 6400 nM.

In general, IC50 refers to the concentration at which inhibition is half-maximal. High values mean weaker potency, low ones greater potency.
